Laboratory results as given in patent publication US20100068782A1, “METHOD FOR THE SURFACE TREATMENT OF SOLID SUBSTRATES” (UNIVERSIDAD DEL (PIAS) PAIS VASCO, priority 2006, published 2010).
Non-standard residues stand in square brackets, D forms with d. Residues, ends and D or L forms follow the SMILES beside them. *: point of attachment. Fmoc = O=C(OCC1c2ccccc2-c2ccccc21)*; Cha = N[C@@H](CC1CCCCC1)C(=O)O; AMC = Cc1cc(=O)oc2cc(N*)ccc12

System: galanin receptors
Experiment: autoradiography of [35S]GTPγS binding in tissue arrays of isolated cell membranes with ligands of galanin receptors
Assay type: biochemical, Sprague Dawley rats
Details: for binding of [35S]GTPγS in the presence of ligand: some tissues (e.g., pituitary), membranes on slides treated with orthophosphoric acid, vs basal; for antagonism of the action of galnon on [35S]GTPγS binding: galnon + antagonist, tissue arrays (FIG. 7)
Source text: Five male Sprague Dawley rats (250-275 g) were anesthetized and sacrificed according to the guide approved by the Ethics Committee of the Faculty of Medicine of the Basque Country University following internationally accepted guidelines (86/609/EEC). Organs and tissues which would be used in the experiment (pancreas, stomach, small intestine, spleen, heart, lung, liver, testicle, deferent duct, kidney, suprarenal glands, spinal cord and brain: frontal cortex, striatum, brain stem, pituitary, olfactory nuclei, hippocampus, hypothalamus, thalamus, colliculus and cerebellum) were subsequently extracted. These samples were stored at −70° C. until performing the experiment.
The tissue samples (1 g) were homogenized using a Teflon-glass homogenizer (10 taps at 1,500 rpm) in 30 volumes of homogenization buffer 1 mM [ethylene glycol-bis(β-aminoethyl)-N,N,N′,N′-tetraacetic acid (EGTA), 3 mM MgCl2, 1 mM dithiothreitol (DTT) and 50 mM Tris-HCl, pH 7.4] supplemented with […] sucrose. The crude homogenate was centrifuged at 3,000×g and at 4° C. for 5 minutes and the resulting supernatant was again centrifuged at 40,000×g for 10 minutes (4° C.). The pellet was washed in 20 volumes of homogenization buffer and re-centrifuged in the same conditions. Aliquots were prepared and stored at −70° C. The protein content was determined according to the Bradford method [Bradford M M., Anal Biochem 1976; 72:248-54] using bovine serum albumin (BSA) as standard.
Aliquots of 1 mg/ml of each tissue were taken and with this suspension, 1 μl microspots were made on glass supports (microscope slides) subjected to the following treatments: • a) Treated with orthophosphoric acid (PA) according to the process of Example 1; • b) Gelatinized (G); • c) Coated with gamma-aminopropyltriethoxysilane (APTS); • d) Treated with nitric acid and gelatinized (NA); • e) Treated with nitric acid and subsequently with lignin (NA+lignin); • f) Treated with nitric acid and subsequently with pectin (NA+pectin); or • g) Treated with nitric acid and subsequently with Kuzu (NA+Kuzu).
The microscope slides with the tissue sections were left drying for 15 minutes at room temperature. Subsequently the tissue sections were preincubated in assay buffer at pH 7.4 [50 mM Tris-HCl, 3 mM MgCl2, 0.2 mM EGTA, 100 mM NaCl, 3 mU/ml adenosine deaminase] for 20 minutes at room temperature to eliminate, as much as possible, the presence of endogenous neurotransmitters; after that, the sections were again preincubated in the assay buffer supplemented with guanosine diphosphate (GDP) (2 mM) and DTT (1 mM).
The microscope slides were then incubated for 2 hours at 30° C. in the previous assay buffer, to which the following substances were added depending on the different conditions of the experiment:
After this time, 2 15-minute washings were performed in 50 mM Tris-HCl buffer, pH 7.4 at 4° C. After the second washing, the sections were immersed in distilled water at 4° C. to eliminate the salts and the microscope slides were dried by means of the application of a cold airflow.
Subsequently, the microscope slides with the corresponding sections were exposed to a radiosensitive film (Kodak Biomax MR) which was developed similarly to photographic film. The labeling was quantified transforming the different gray densities into nCi/g tissue equivalent. To that end, each film was exposed together with previously calibrated commercial standards (Amersham). The quantification was performed with microscopic anatomical resolution in a computerized image analysis system, using NIH-image software.
The substances added in the different assays were the following: • (A) To study the binding of [^35S]GTPγS in the absence (basal) and in the presence of agonists, the following agonists were used: • (i) the cannabinoid agonist WIN 55212-2 [(R)-(+)-[2,3-dihydro-5-methyl-3-[(4-morpholinyl)methyl]pyrrolo[1,2,3-d,e]-1.4-benzoxazin-6-yl]-(1-naphthalenyl)methanone mono-methanesulphonate] […]

| Compound | binding of [35S]GTPγS in the presence of ligand | antagonism of the action of galnon on [35S]GTPγS binding |
| --- | --- | --- |
| gal(2-11) | increases |  |
| galanin-(1-13)-substance P-5-11 amide [M15] | increases |  |
| galanin-(1-13)-Pro-Pro-Ala-Leu-Ala-Leu-Ala-Leu-Ala amide [M40] | increases | antagonized |
| Cc1cc(=O)oc2cc(NC(=O)[C@H](CCCCN)NC(=O)[C@H](CC3CCCCC3)NC(=O)OCC3c4ccccc4-c4ccccc43)ccc12 [galnon] (Fmoc-[Cha]-Lys-{AMC}) | increases |  |
| galanin-(1-13)-bradykinin,-(2,9)amide [M35] | increases | antagonized |
